System: behavior induced by spinal intrathecal injection of FeCl2 in mice
Assay: Effect of drugs on the change of the behavior induced by spinal intrathecal injection of FeCl2 in mice (Experiment 1)
Assay type: in vivo, mice (male Slc: ICR)
Details: oral, 30 minutes prior to ferrous chloride injection; for % inhibition: 100 mg/kg, calculated from mean scores vs saline; for Mean Score Administration of Test Compound of 100 mg/kg: behavioral score 0 (normal) to 5 (death), 10 mice per group
Description: Effect of drugs on the change of the behavior induced by spinal intrathecal injection of FeCl2 in mice
Male Slc: ICR mice (5 weeks) (10 mice per group) were used. Saline (5 μl/mouse) containing 50 mM FeCl2 was injected into the subarachnoid space between the 6th lumbar segment and the 1st sacral and scored as follows.
Percent inhibitions were calculated based on the scores evaluated above. The test compounds were orally administered 30 minutes prior no ferrous chloride injection. […]

Structure (SMILES) | % inhibition [%] | Mean Score Administration of Test Compound of 100 mg/kg
Cc1c(C)c2c(c(C)c1N)CC(C)(Cc1ccccc1)O2 (stereo not shown) [Example 1, 5-Amino-2-benzyl-2,4,6,7-tetramethyl-2,3-dihydrobenzofuran] | 73.9 | 1.2
CCNc1c(C)c(C)c2c(c1C)CC(C)(CCc1ccc(F)cc1)O2 (stereo not shown) [Example 47, 5-Ethylamino-2-[2-(4-fluorophenyl)ethyl]-2,4,6,7-tetramethyl-2,3-dihydrobenzofuran] | 79.6 | 1.0
Cc1c(C)c2c(c(C)c1N)CC(C)(CCc1ccccc1)O2 (stereo not shown) [Example 84, 5-Amino-2,4,6,7-tetramethyl-2-(2-phenylethyl)-2,3-dihydrobenzofuran] | 89.1 | 0.5
Cc1c(C)c2c(c(C)c1N)CC(C)(CCc1ccc(F)cc1)O2 (stereo not shown) [Example 85, 5-Amino-2,4,6,7-tetramethyl-2-[2-(4-fluorophenyl)ethyl]-2,3-dihydrobenzofuran] | 87.0 | 0.6
Cc1c(C)c2c(c(C)c1N)CC(C)(C)O2 [Example 103, 5-Amino-2,2,4,6,7-pentamethyl-2,3-dihydrobenzofuran] | 98.0 | 0.1

From patent US5376681A, “Aminocoumaran derivatives, their production and use” (Takeda Chemical Industries, Ltd., priority 1990, dated 1994)
